Molecules are shown by their SMILES. Like-named read-outs stand apart in the source and are kept apart here.

Assay [1] relates to hypercholesterolemia golden hamster model. The experiment in a line: In vivo pharmacodynamic screening in hypercholesterolemia model of golden hamster (plasma TC and LDL-C). The following applies: for inhibition in vivo at 2 mg/kg / inhibition in vivo at 1 mg/kg / inhibition in vivo at 10 mg/kg / inhibition in vivo at 3 mg/kg: Mesocricetus auratus, po, 168 h; for inhibition in vivo at 2 mg/kg: Table 2; for LDL-C after administration / TC after administration / LDL after administration: 1 week, plasma; for reduction of plasma TC and LDL-C levels (in words): golden hamster hypercholesterolemic model, significant statistical difference; for effect of lowering cholesterol (screening result in words): in vivo pharmacodynamic screening test, Ezetimibe as positive control; for efficacy compared with the positive control (in words): positive control Ezetimibe. The method, then: 1. Establishment of Hypercholesterolemia Model of Golden Hamster:
The animals were subjected to acclimation feeding for 1 week with free feeding and drinking under a lighting condition of 10 h/14 h. On Day 8, the animals were raised with high fat feed (consisting of 0.5% cholesterol, 20% palm oil, 79.5% basal feed) for 1 week. Then, each animal was anesthetized by ether. After weighing, 0.5 ml blood was obtained from orbital vein, anticoagulated with heparin and centrifuged at 5000 rpm for 10 min. The plasma was collected and the levels of plasma TC (total cholesterol) and LDL-C (low density lipoprotein cholesterol) were determined by automatic biochemical analyzer. Animals with plasma TC of 9-15 mmol/L were selected as model animals (refer to the following reference for the method of animal modeling: Burrier, R. E., Smith, A. A., Mcgregor, D. G, Hoos, L. M., Zilli, D. L., Davis, H. R. The effect of acyl CoA: cholesterol acyltransferase inhibition on the uptake, esterification and secretion of cholesterol by the hamster small intestine. J. Pharm. Exp. Ther., 1995, 272, 156-163).
The animals were grouped according to TC and LDL-C levels and weight with 6 animals per group. Ezetimibe was used as positive control. The animals were intragastrically administered at a volume of 5 ml/kg for 1 week. Each animal was anesthetized by ether. After weighing, 0.5 ml blood was taken from orbital vein, anticoagulated with heparin, and centrifuged at 5000 rpm for 10 min. The plasma was collected and plasma TC (total cholesterol) and LDL-C (low density lipoprotein cholesterol) levels were determined by automatic biochemical analyzer to evaluate the efficacy of the compounds.

The subject of assay [2] is normal guinea pig. Put plainly: Effect on blood lipid level of normal guinea pigs. Format: in vivo. The following applies: Table 13; 2.5 mg/kg.
Setting [3] is: Table 6, 1 mg/kg, read-out: Reducing LDL-C %.
The mark [4] stands for this setting: Table 6, 1 mg/kg, read-out: Reducing TC %.
[5] abbreviates: Table 8, 1 mg/kg, read-out: Reducing LDL-C %.
Where [6] appears, read: Table 8, 1 mg/kg, read-out: Reducing TC %.
[7] abbreviates: Table 10, 1 mg/kg, read-out: Reducing LDL-C %.
Where [8] appears, read: Table 10, 1 mg/kg, read-out: Reducing TC %.
[9] abbreviates: Table 11, baseline of group dosed 1 mg/kg.
Setting [10] is: Table 8, read-out: Reducing LDL-C %.
The mark [11] stands for this setting: Table 8, read-out: Reducing TC %.
Setting [12] is: Table 11, 10 mg/kg intragastric.
Setting [13] is: Table 11, baseline of group dosed 10 mg/kg.

As for `O=C1[C@H](CC[C@H](O)c2ccc(F)cc2)[C@@H](c2ccc(O)cc2)N1c1ccc(F)cc1` [Ezetimibe, reference compound], the inhibition in vivo at 2 mg/kg in assay [1] (read-out: Reducing LDL-C %) is 77.6%; in assay [1] (read-out: Reducing TC %) it was 57.4%. Further, the inhibition in vivo at 1 mg/kg in assay [1] (Table 4, 1 mg/kg, read-out: Reducing TC %) is 58.8%; in assay [1] (setting [3]), 76%; in assay [1] (setting [4]) it was 58.3%; in assay [1] (setting [5]), 64.2%; in assay [1] (setting [6]), 48.1%; in assay [1] (setting [7]), 68.2%. Besides, the inhibition in vivo at 1 mg/kg stood at 64.4% in assay [1] (setting [8]); 60.8% in assay [1] (Table 12, 1 mg/kg, read-out: Reducing LDL-C %); 58.5% in assay [1] (Table 12, 1 mg/kg, read-out: Reducing TC %). Also, the LDL-C after administration in assay [1] (Table 1, 2 mg/kg intragastric) stood at 0.57 ± 0.34 mmol/L; in assay [1] (Table 11, 1 mg/kg intragastric) it was 1.13. Also, the TC after administration was 4.21 ± 0.68 mmol/L in assay [1] (Table 1, 2 mg/kg intragastric); 5.62 ± 0.48 mmol/L in assay [1] (Table 3, 1 mg/kg intragastric); 4.51 mmol/L in assay [1] (Table 5, 1 mg/kg intragastric); 5.58 mmol/L in assay [1] (Table 7, 1 mg/kg intragastric); 5.45 mmol/L in assay [1] (Table 9, 1 mg/kg intragastric); 5.29 in assay [1] (Table 11, 1 mg/kg intragastric). In addition, the TC after administration in assay [2] is reported as 1.14 ± 0.24 mmol/L. In addition, the LDL-C before administration in assay [1] (Table 1, baseline of group dosed 2 mg/kg) was 2.55 ± 0.96 mmol/L; in assay [1] (setting [9]) it was 2.88 ± 0.79. In addition, the LDL after administration in assay [1] (Table 3, 1 mg/kg intragastric) worked out at 1.16 ± 0.44 mmol/L; in assay [1] (Table 5, 1 mg/kg intragastric), 1.3 mmol/L; in assay [1] (Table 7, 1 mg/kg intragastric), 1.62 mmol/L; in assay [1] (Table 9, 1 mg/kg intragastric) it was 1.0 mmol/L; in assay [2] it was 0.99 mmol/L. Also, the “Reducing LDL %” value in assay [1] (Table 4, 1 mg/kg) came to 36.0%. The same compound gave a TC before administration in assay [1] (setting [9]) of 12.74 ± 1.44. The HDL after administration in assay [2] was 0.41 mmol/L. This compound showed a TG after administration in assay [2] of 0.41 ± 0.12 mmol/L.
Regarding `O=C(OC/C(=C\C[C@H]1C(=O)N(c2ccc(F)cc2)[C@@H]1c1ccc(O)cc1)c1ccc(F)cc1)c1ccccc1` [I-13(Z)], the inhibition in vivo at 1 mg/kg in assay [1] (setting [3]) is 58.1%; in assay [1] (setting [4]), 36.8%. For the same compound, the inhibition in vivo at 10 mg/kg amounted to 68.8% in assay [1] (Table 6, read-out: Reducing LDL-C %) and 55.4% in assay [1] (Table 6, read-out: Reducing TC %). Besides, the LDL after administration turned out to be 1.98 mmol/L in assay [1] (Table 5, 1 mg/kg intragastric) and 1.27 mmol/L in assay [1] (Table 5, 10 mg/kg intragastric). In addition, the TC after administration came to 6.92 mmol/L in assay [1] (Table 5, 1 mg/kg intragastric) and 4.81 mmol/L in assay [1] (Table 5, 10 mg/kg intragastric). In addition, in assay [1], the “reduction of plasma TC and LDL-C levels (in words)” value (“reduction” below) was “can significantly reduce the plasma TC and LDL-C levels”. Besides, in assay [1], the “effect of lowering cholesterol (screening result in words)” value (shortened to “effect of lowering cholesterol”) is on record as “have the effect of lowering cholesterol”.
Regarding `O=C(OC/C(=C\C[C@H]1C(=O)N(c2ccc(F)cc2)[C@@H]1c1ccc(O)cc1)c1ccc(F)cc1)c1ccc(F)cc1` [I-14(Z)], the inhibition in vivo at 1 mg/kg amounted to 28.6% in assay [1] (setting [5]) and 13.5% in assay [1] (setting [6]). Further, the inhibition in vivo at 3 mg/kg turned out to be 52.3% in assay [1] (setting [10]) and 44.4% in assay [1] (setting [11]). For the same compound, the LDL after administration stood at 2.56 mmol/L in assay [1] (Table 7, 1 mg/kg intragastric) and 2.01 mmol/L in assay [1] (Table 7, 3 mg/kg intragastric). Further, the TC after administration came out at 9.34 mmol/L in assay [1] (Table 7, 1 mg/kg intragastric) and 6.06 mmol/L in assay [1] (Table 7, 3 mg/kg intragastric). In addition, the “reduction” value in assay [1] was “can significantly reduce the plasma TC and LDL-C levels”. Moreover, the “effect of lowering cholesterol” value in assay [1] is “have the effect of lowering cholesterol”.
As for `Cc1ccc(C(=O)OC/C(=C\C[C@H]2C(=O)N(c3ccc(F)cc3)[C@@H]2c2ccc(O)cc2)c2ccc(F)cc2)cc1` [I-15(Z)], in assay [1] (setting [5]), the inhibition in vivo at 1 mg/kg was 46.5%. In addition, the inhibition in vivo at 1 mg/kg in assay [1] (setting [6]) came to 38.1%. Besides, the inhibition in vivo at 3 mg/kg in assay [1] (setting [10]) is 70.4%. In addition, the inhibition in vivo at 3 mg/kg in assay [1] (setting [11]) amounted to 50.8%. For the same compound, in assay [1] (Table 7, 1 mg/kg intragastric), the LDL after administration came to 1.99 mmol/L and the TC after administration was 6.76 mmol/L. In assay [1] (Table 7, 3 mg/kg intragastric), this compound returned an LDL after administration of 1.44 mmol/L and a TC after administration of 5.37 mmol/L. In addition, in assay [1], the “reduction” value is “can significantly reduce the plasma TC and LDL-C levels”; the “effect of lowering cholesterol” value is “have the effect of lowering cholesterol”; the “efficacy compared with the positive control (in words)” value is recorded as “more similar to the positive control”.
For `CC(=O)OC/C(=C\C[C@H]1C(=O)N(c2ccc(F)cc2)[C@@H]1c1ccc(OC(=O)c2ccccc2)cc1)c1ccc(F)cc1` [I-16(Z), (3R,4S)-3-[(Z)-4-acetoxy-3-(4-fluorophenyl)-but-2-enyl]-4-(4-benzoyloxyphenyl)-1-(4-fluorophenyl)azetidin-2-one], the inhibition in vivo at 1 mg/kg in assay [1] (setting [7]) was 31.7%; in assay [1] (setting [8]) it was 37.4%. In addition, the inhibition in vivo at 10 mg/kg in assay [1] (Table 10, read-out: Reducing LDL-C %) was found to be 65%; in assay [1] (Table 10, read-out: Reducing TC %) it was 60.9%. Further, the LDL after administration came to 2.15 mmol/L in assay [1] (Table 9, 1 mg/kg intragastric) and 1.1 mmol/L in assay [1] (Table 9, 10 mg/kg intragastric). Also, the TC after administration was found to be 9.61 mmol/L in assay [1] (Table 9, 1 mg/kg intragastric) and 6.0 mmol/L in assay [1] (Table 9, 10 mg/kg intragastric). Also, in assay [1], the “reduction” value is “can significantly reduce the plasma TC and LDL-C levels”. Also, in assay [1], the “effect of lowering cholesterol” value was “have the effect of lowering cholesterol”.
On to `COc1ccc([C@@H]2[C@@H](C/C=C(\COC(C)=O)c3ccc(F)cc3)C(=O)N2c2ccc(F)cc2)cc1` [I-17(Z), (3R,4S)-3-[(Z)-4-acetoxy-3-(4-fluorophenyl)-but-2-enyl]-1-(4-fluorophenyl)-4-(4-methoxyphenyl)azetidin-2-one], for which the inhibition in vivo at 10 mg/kg in assay [1] (Table 12, read-out: Reducing LDL-C %) came out at 60.1%. In assay [1] (Table 12, read-out: Reducing TC %), the inhibition in vivo at 10 mg/kg came to 59.8%. For the same compound, in assay [1] (setting [12]), the LDL-C after administration is on record as 1.19 and the TC after administration is 5.09. Moreover, in assay [1] (setting [13]), the LDL-C before administration worked out at 2.98 ± 0.72 and the TC before administration turned out to be 12.67 ± 1.28. Further, in assay [1], the “reduction” value was “can significantly reduce the plasma TC and LDL-C levels”; the “effect of lowering cholesterol” value is reported as “have the effect of lowering cholesterol”; the “efficacy compared with the positive control (in words)” value is listed as “more similar to the positive control”.

Values taken from patent publication US8623855B2, “Azetidinone compounds and medical use thereof” (Zhejiang Hisun Pharmaceutical Co., Ltd., priority 2009, dated 2014).
